Values after ≈ are worked out from the molar mass of the structure shown.
Legend:
physchem = settings: PBS buffer, pH 7.4
C6 = assay: Cytotoxicity against rat C6 cells assessed as cell viability
[1] = Metabolic stability in mouse liver microsomes assessed as compound remaining at 10 uM after 60 mins
[2] = Metabolic stability in human liver microsomes assessed as compound remaining at 10 uM after 60 mins
[3] = Metabolic stability in mouse liver microsomes assessed as compound remaining at 1 uM after 60 mins
[4] = Metabolic stability in human liver microsomes assessed as compound remaining at 1 uM after 60 mins
[5] = Ratio of drug level in brain to plasma in C57BL/6 mouse at 5 mg/kg, ip measured after 1 to 2 hrs
[6] = Ratio of drug level in brain to plasma in C57BL/6 mouse at 10 mg/kg, po measured after 1 to 2 hrs
in vivo [7] = settings: C57BL/6, mouse, po, 10 mg/kg
in vivo [8] = settings: C57BL/6, mouse, ip, 5 mg/kg
[9] = Cmax in C57BL/6 mouse at 3 mg/kg, iv; assay type: ADME, organism-based; parameters: dose 3 mg/kg, route intravenous; settings: in vivo
[10] = Terminal half life in C57BL/6 mouse plasma at 3 mg/kg, ip; assay type: ADME, organism-based; parameters: dose 3 mg/kg, route intraperitoneal; settings: read-out: beta t1/2 (converted)
[11] = target: Prostaglandin E2 receptor EP2 subtype (Homo sapiens) (UniProt P43116); assay: Competitive antagonist activity at human EP2 receptor expressed in rat C6 cells assessed as parallel rightward shift in PGE2 concentration response curve treated for 10 mins prior to PGE2 challenge for 40 mins by TR-FRET assay; assay type: cell-based
Sequence of Prostaglandin E2 receptor EP2 subtype (Homo sapiens) (P43116 whole entry): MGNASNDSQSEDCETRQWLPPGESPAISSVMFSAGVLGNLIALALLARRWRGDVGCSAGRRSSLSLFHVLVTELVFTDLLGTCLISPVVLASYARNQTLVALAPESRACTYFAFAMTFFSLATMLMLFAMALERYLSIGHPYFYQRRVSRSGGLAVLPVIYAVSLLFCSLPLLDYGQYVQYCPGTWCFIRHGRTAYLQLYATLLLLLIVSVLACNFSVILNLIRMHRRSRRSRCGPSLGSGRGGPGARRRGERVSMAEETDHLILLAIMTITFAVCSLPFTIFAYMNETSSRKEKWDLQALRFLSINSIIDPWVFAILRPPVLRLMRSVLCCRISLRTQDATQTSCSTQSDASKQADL

Compound | solubility kinetic (physchem) | CC50 (C6) | remaining at 1 h, 10 µM [1] | remaining at 1 h, 1 µM [3] | remaining at 1 h, 1 µM [4] | other results
COc1cc(/C=C/C(=O)NCCn2c(CNC3CCN(C)CC3)cc3ccccc32)cc(OC)c1OC | 180 µM (≈ 91.2 µg/mL) |  |  |  |  | 
Cc1cc2ccccc2n1CCNC(=O)/C=C/c1ccc(OCCO)cc1 | 68 µM (≈ 24.8 µg/mL) | 81.7 µM |  |  |  | 
COc1ccc(/C=C/C(=O)NCCc2c(C)[nH]c3ccccc23)cc1OC | 41 µM (≈ 14.9 µg/mL) | 246 µM | 0.1% | 0.2% | 12.4% | remaining at 1 h, 10 µM [2]: 18.6%
Cc1cc2ccccc2n1CCNC(=O)/C=C/c1ccc(OCCCO)cc1 | 66 µM (≈ 25 µg/mL) | 36.6 µM |  |  |  | 
Cc1cc2ccccc2n1CCNC(=O)/C=C/c1ccc(OCCO)c(OCCO)c1 | 153 µM (≈ 64.9 µg/mL) | 92.3 µM | 8.7% | 1.7% | 16.2% | Kp [5]: < 0.1; Kp [6]: < 0.1; Cmax (in vivo [7]): 128 ng/mL; Cmax (in vivo [8]): 1510 ng/mL
COc1cc(/C=C/C(=O)NCCn2c(C)c(CN(C)C)c3ccccc32)cc(OC)c1OC | 110 µM (≈ 49.7 µg/mL) |  |  |  |  | 
Cc1cc(/C=C/C(=O)NCCc2c(C)[nH]c3ccccc23)cc(C)c1F | < 25 µM | 317 µM | 51.7% | 0.1% | 0.4% | remaining at 1 h, 10 µM [2]: 21.4%
COc1cc(/C=C/C(=O)NCCc2n[nH]c3ccccc23)cc(OC)c1OC | 152 µM (≈ 58 µg/mL) |  |  |  |  | 
COc1cc(/C=C/C(=O)NCCn2c(C)cc3ccccc32)cc(OC)c1OC | 45 µM (≈ 17.8 µg/mL) | 172 µM | 4.8% | 0.2% | 0.1% | remaining at 1 h, 10 µM [2]: 10.6%; Cmax [9]: 2400 ng/mL
O=C(/C=C/c1ccc(OCCO)c(OCCO)c1)NCCn1c(C(F)(F)F)cc2ccccc21 | 67 µM (≈ 32.1 µg/mL) |  |  |  |  | 
Cc1cc(/C=C/C(=O)NCCn2c(C)cc3ccccc32)cc(C)c1F | < 25 µM | 368 µM | 13% | 18.3% | 20.9% | half-life [10]: 34.8 min; remaining at 1 h, 10 µM [2]: 24%
COc1cc(/C=C/C(=O)NCCn2c(C)cc3ccccc32)cc(OC)c1OCCN(C)C | 180 µM (≈ 81.3 µg/mL) |  |  |  |  | 
Cc1[nH]c2ccccc2c1CCNC(=O)/C=C/c1ccc(OCCO)c(OCCO)c1 | 235 µM (≈ 99.8 µg/mL) | 126 µM | 19.3% | 7.1% | 58.5% | remaining at 1 h, 10 µM [2]: 70.4%
Cc1cc2ccccc2n1CCNC(=O)/C=C/c1ccc(OCCN(C)C)cc1 | 90 µM (≈ 35.2 µg/mL) |  |  |  |  | 
COc1cc(/C=C/C(=O)NCCn2c(C(F)(F)F)cc3ccccc32)cc(OC)c1OCCO | 35 µM (≈ 16.7 µg/mL) | 31.2 µM |  |  |  | 
COc1cc(/C=C/C(=O)NCCn2c(C)cc3ccccc32)cc(OC)c1OCCO | 66 µM (≈ 28 µg/mL) | 43.3 µM |  |  |  | Kb [11]: 0.0067 µM; inhibition [11]: Dose-dependent effect
Cc1cc2ccccc2n1CCNC(=O)/C=C/c1ccc(OCCCN(C)C)cc1 | 306 µM (≈ 124 µg/mL) |  |  |  |  | 
COc1cc(/C=C/C(=O)NCCn2c(CN3CCOCC3)cc3ccccc32)cc(OC)c1OC | 91 µM (≈ 43.6 µg/mL) |  |  |  |  | 
COc1cc(/C=C/C(=O)NCCn2c(C)c(CN3CCCCC3)c3ccccc32)cc(OC)c1OC | 75 µM (≈ 36.9 µg/mL) |  |  |  |  | 
COc1cc(/C=C/C(=O)NCCc2c(C)[nH]c3ccccc23)cc(OC)c1OC | 43 µM (≈ 17 µg/mL) | 59.5 µM | 0.2% | 0% | 0.8% | remaining at 1 h, 10 µM [2]: 5.8%
COc1cc(/C=C/C(=O)NCCc2c(C)[nH]c3c(F)cc(F)cc23)cc(OC)c1OC | < 25 µM |  |  |  |  | 
COc1cc(/C=C/C(=O)NCCn2c(C)cc3ccccc32)cc(OC)c1 | < 25 µM |  |  |  |  | 
